# From the supplement of paper PMC8671470
# Counter-ions that a name gives are not always drawn. ± gives the standard deviation of the averaged measurements.
# What was measured:
# HL-60 [1] = assay: area under dose-response curve (viability, 1 nM-10 uM) (fraction (0-1)); higher = more sensitive; conditions: 72 h
# Procedure, shortened: (§1)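 A rescreen of the full library used HL-60 cells in RPMI 1640 with 10% FBS on 384-well plates, run in duplicate at five tenfold concentrations (1–10,000 nM). Each screen included DMSO or 100 nM of one of three metabolic inhibitors and ran 72 h at 37 °C, 5% CO2. CellTiter-Glo viability was scaled between DMSO and 10 μM proteasome-inhibitor wells. Any area under the curve comes from four-parameter log-logistic fits with drc and PharmacoGx.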
# HL-60 [2] = assay: cell viability (% survival relative to DMSO control); higher = less cytotoxic; conditions: 72 h
# Procedure, shortened: as §1
# [3] = co-treatment: GSK2194069 100 nM
# [4] = co-treatment: pictilisib 100 nM
# [5] = 0.001 µM, co-treatment: AZD3965 100 nM
# [6] = 0.001 µM, co-treatment: DMSO vehicle
# [7] = 0.001 µM, co-treatment: GSK2194069 100 nM
# [8] = 0.001 µM, co-treatment: pictilisib 100 nM
# [9] = 0.01 µM, co-treatment: AZD3965 100 nM
# [10] = 0.01 µM, co-treatment: DMSO vehicle
# [11] = 0.01 µM, co-treatment: GSK2194069 100 nM
# [12] = 0.01 µM, co-treatment: pictilisib 100 nM
# [13] = 0.1 µM, co-treatment: AZD3965 100 nM
# [14] = 0.1 µM, co-treatment: DMSO vehicle
# [15] = 0.1 µM, co-treatment: GSK2194069 100 nM
# [16] = 0.1 µM, co-treatment: pictilisib 100 nM
# [17] = 1 µM, co-treatment: AZD3965 100 nM
# [18] = 1 µM, co-treatment: DMSO vehicle
# [19] = 1 µM, co-treatment: GSK2194069 100 nM
# [20] = 1 µM, co-treatment: pictilisib 100 nM
# [21] = 10 µM, co-treatment: AZD3965 100 nM
# [22] = 10 µM, co-treatment: DMSO vehicle
# [23] = 10 µM, co-treatment: GSK2194069 100 nM
# [24] = 10 µM, co-treatment: pictilisib 100 nM
Structure (SMILES),area under dose-response curve (HL-60 [1]; co-treatment: AZD3965 100 nM),area under dose-response curve (HL-60 [1]; co-treatment: DMSO vehicle),area under dose-response curve (HL-60 [1]; [3]),area under dose-response curve (HL-60 [1]; [4]),cell viability (HL-60 [2]; [5]) [%],cell viability (HL-60 [2]; [6]) [%],cell viability (HL-60 [2]; [7]) [%],cell viability (HL-60 [2]; [8]) [%],cell viability (HL-60 [2]; [9]) [%],cell viability (HL-60 [2]; [10]) [%],cell viability (HL-60 [2]; [11]) [%],cell viability (HL-60 [2]; [12]) [%],cell viability (HL-60 [2]; [13]) [%],cell viability (HL-60 [2]; [14]) [%],cell viability (HL-60 [2]; [15]) [%],cell viability (HL-60 [2]; [16]) [%],cell viability (HL-60 [2]; [17]) [%],cell viability (HL-60 [2]; [18]) [%],cell viability (HL-60 [2]; [19]) [%],cell viability (HL-60 [2]; [20]) [%],cell viability (HL-60 [2]; [21]) [%],cell viability (HL-60 [2]; [22]) [%],cell viability (HL-60 [2]; [23]) [%],cell viability (HL-60 [2]; [24]) [%]
C=CC(=O)c1ccc(O)cc1 [4-Acryloylphenol],< 0.0301,< 0.0301,< 0.0301,< 0.0301,104 ± 2.3,102 ± 3.4,104 ± 3.1,108 ± 2.5,99.2 ± 1.7,101.3 ± 0.4,110 ± 15,103 ± 8.7,88.2 ± 19,100 ± 5.9,96.21 ± 0.15,104 ± 3.7,99.4 ± 1.9,102 ± 5.9,105 ± 9.7,108 ± 23,63.5 ± 5.5,92.8 ± 3.6,87.5 ± 4.1,58.5 ± 22
CN(CCCOc1ccc(Cc2ccccc2)cc1)CCC(=O)O,< 0.0301,< 0.0301,< 0.0301,< 0.0301,98 ± 1.6,106 ± 1.8,102.15 ± 0.037,98.7 ± 14,101 ± 7.5,100 ± 4.3,102 ± 4.6,110 ± 3.2,112 ± 15,104 ± 3.2,105.1 ± 0.41,114 ± 20,99.6 ± 0.52,100 ± 2.7,103 ± 9.3,97.8 ± 4.1,99.54 ± 0.33,98.6 ± 0.22,101 ± 5.6,93.3 ± 3.2
N#C/C(=C\c1ccc(O)cc1)C(=O)O [alpha-cyano-4-hydroxycinnamic acid],< 0.0301,< 0.0301,< 0.0301,< 0.0301,99.4 ± 2.6,98.9 ± 6.6,101 ± 11,90.3 ± 2.3,101 ± 2,98.8 ± 2.9,103 ± 2.3,99.16 ± 0.25,102.35 ± 0.098,95.79 ± 0.61,98.6 ± 4.6,95.5 ± 3,101 ± 4.6,99.8 ± 2.5,97.5 ± 6.4,94.7 ± 5.4,101 ± 1.7,98.6 ± 2,95.5 ± 2,91.3 ± 5.2
O=c1c(-c2ccc(O)cc2)coc2cc(O[C@@H]3O[C@H](CO)[C@@H](O)[C@H](O)[C@H]3O)ccc12 [Daidzin],< 0.0301,< 0.0301,< 0.0301,< 0.0301,94.4 ± 7.1,96.2 ± 3.1,96.5 ± 3.9,94 ± 11,104 ± 6.6,102 ± 5.1,105 ± 2.1,103 ± 11,102 ± 9.7,101.7 ± 0.79,102 ± 3.5,105 ± 3.9,84.8 ± 30,98.92 ± 0.91,98.7 ± 2.4,67.6 ± 43,107 ± 9.1,99.7 ± 1.7,101 ± 11,98.5 ± 12
CCCCCN(C)CCC(O)(P(=O)(O)O)P(=O)(O)O [Ibandronate],< 0.0301,< 0.0301,< 0.0301,< 0.0301,101 ± 4,101 ± 3,98.3 ± 3.5,103 ± 12,90.6 ± 11,99.4 ± 3.6,98.1 ± 3.2,87.2 ± 3.4,108.2 ± 0.12,104 ± 2.7,104 ± 2.5,101 ± 3.7,94.15 ± 0.69,99.1 ± 3.3,94.4 ± 2.5,94.3 ± 2,99.33 ± 0.86,106 ± 1.4,99 ± 1.6,99.9 ± 3.8
N#Cc1ccc(N(Cc2ccc(Br)cc2)n2cnnc2)cc1 [YM511],–,–,–,–,83.2 ± 8.3,96.8 ± 4,96.8 ± 2,88.1 ± 9.3,106 ± 6.3,102 ± 4.8,81 ± 33,79.9 ± 18,102 ± 2,101.39 ± 0.056,105 ± 5.9,99.6 ± 1.7,95.3 ± 5.1,101 ± 2.3,97.49 ± 0.82,92.9 ± 4.6,96.88 ± 0.89,104 ± 4.4,102 ± 2.3,95.3 ± 5.3
CCN(CCO)CCCC(C)Nc1ccnc2cc(Cl)ccc12 (stereo not drawn) [Hydroxychloroquine sulfate],< 0.0301,< 0.0301,< 0.0301,< 0.0301,91.8 ± 6,92.3 ± 6.9,97 ± 19,86.1 ± 14,97.2 ± 7.5,98.9 ± 4.7,101 ± 2.1,101 ± 1.4,105 ± 4,101 ± 6.6,111 ± 7.2,109 ± 7.7,96.7 ± 1.4,98.9 ± 6.2,99.5 ± 8,107 ± 11,101 ± 1.3,99.8 ± 2.9,104 ± 7.1,103 ± 9.1
O=c1cc(-c2ccccc2)oc2c1ccc1ccccc12 [Alpha-Naphtoflavone],< 0.0301,< 0.0301,< 0.0301,< 0.0301,103 ± 6.3,102 ± 1.3,98.2 ± 2.1,96.8 ± 1,99 ± 5.6,99.7 ± 3.6,101 ± 5.7,101.3 ± 0.75,102 ± 4,97.6 ± 4.9,110 ± 9.3,99.3 ± 2,100.7 ± 0.43,98.3 ± 3.9,99.9 ± 4.9,93 ± 4.5,101.2 ± 1,101 ± 1.2,98.3 ± 4.6,90 ± 3.6
